Data: patent US5002932A, “Antiviral pharmaceutical compositions and method of treating herpes” (priority 1987, dated 1991)
Bridge positions count the residues as written; N and C are the ends. Square brackets hold non-standard residues; d marks the D form. Peptide text beside a SMILES is read from it. * marks the point of attachment. Ileψ(thiazoline)Cys = CC[C@H](C)[C@H](N)C1=N[C@H](C(=O)*)CS1; dOrn = NCCC[C@@H](N)C(=O)O

Assays:
HSV-2 (strain HG-52) = test: Inhibition of HSV-2 replication in serum-starved BHK 21/C13 cells (cell culture technique, virus titration); assay type: cell-based; conditions: for PFU per cell for control/PFU per cell for agent: 30 hours post infection; for PFU PER CELL: infected BHK 21/C13 cells harvested 30 hours post infection, control 67.00
Method: This method in a modified form is exemplified hereinafter.
(a) Preparation of serum-starved cells: A medium composed of alpha medium (Gibco Canada Inc, Burlington, Ontario, Canada) and fetal calf serum (Gibco Canada Inc.), in a 9:1 volume ratio, was placed in tissue culture dishes (35 mm, A/S Nunc, Kamstrup, Denmark). The medium in each dish was seeded with BHK 21/C13 cells (1.5 ×10^6 for each dish). (BHK 21/C13 cells have been described by Y. Langelier and G. Buttin, J. Gen. Virol., 57, 21 (1981)). After 6 hours, the medium was replaced with a new medium composed of alpha medium and fetal calf serum (99.5:0.5 v/v). The resultant preparation was incubated at 37° C. for 4 days.
(b) Cell infection in BBMT medium* without serum: The incubation medium was removed from the cells. The cells were washed twice with alpha medium (without the serum) and once with the BBMT medium. The cells were then incubated at 37° C. in BBMT medium for two hours. A series of viral solutions were prepared from a stock of HSV-2 (strain HG-52, described by Langelier and Buttin, supra) and the appropriate choice and amounts of the agents to be tested, diluted with BBMT to give viral solutions having a multiplicity of infection of 0.02 plaque forming units (PFU) per cell. A control viral solution (without any agent) also was prepared. Each viral solution (250 μl) was added to duplicate dishes containing the previously prepared cells in BBMT medium. After one hour of incubation at 37° C. for virus absorption, the medium in each dish was removed by aspiration. The cells were washed twice with BBMT medium. Fresh BBMT medium (800 μl), with or without (control) the appropriate concentration of the test agent, was added to the dishes which were further incubated at 37° C. Every six hours, a concentrated solution of bacitracin in BBMT was added to the appropriate dishes to maintain the initial concentration of that agent.
*BBMT medium is described by P. Brazeau et al., Proc. Natl. Acad. Sci. USA, 79, 7909 (1982).
(c) Harvesting: At 30 hours post-infection, cells were detached with a rubber policeman and frozen at -80° C. until titration.
(d) Titration: Virus titration were performed according to the method of B. B. Wentworth and L. French, Proc. Soc. Exp. Biol. Med., 131, 588 (1969).
The following table is illustrative of the results obtained when acyclovir, bacitracin and combinations thereof were tested for activity according to the preceding method. Results are expressed in PFU per cell for infected cells harvested at 30 hours post infection. The lower the PFU per cell value, the greater the inhibitory effect on viral replication of the tested agent.

[1] = tested on: herpes simplex virus type 1 (HSV-1); conditions: bacitracin used alone; reported by Alarcon et al.; cited from earlier work

| SMILES | PFU per cell for control/PFU per cell for agent (HSV-2 (strain HG-52); Bacitracin 0.25 mM) | PFU PER CELL (HSV-2 (strain HG-52); Bacitracin 0.25 mM) | PFU per cell for control/PFU per cell for agent (HSV-2 (strain HG-52); Bacitracin 0.50 mM) | PFU PER CELL (HSV-2 (strain HG-52); Bacitracin 0.50 mM) | PFU per cell for control/PFU per cell for agent (HSV-2 (strain HG-52); Bacitracin 0.75 mM) | PFU PER CELL (HSV-2 (strain HG-52); Bacitracin 0.75 mM) | PFU per cell for control/PFU per cell for agent (HSV-2 (strain HG-52); Bacitracin 1.00 mM) | PFU PER CELL (HSV-2 (strain HG-52); Bacitracin 1.00 mM) | activity against herpes simplex virus type 1 (HSV-1) [1] | PFU per cell for control/PFU per cell for agent (HSV-2 (strain HG-52); Acyclovir 0.50 μM) | PFU PER CELL (HSV-2 (strain HG-52); Acyclovir 0.50 μM) | PFU per cell for control/PFU per cell for agent (HSV-2 (strain HG-52); Acyclovir 2.00 μM) | PFU PER CELL (HSV-2 (strain HG-52); Acyclovir 2.00 μM) |
| --- | --- | --- | --- | --- | --- | --- | --- | --- | --- | --- | --- | --- | --- |
| CC[C@H](C)[C@H](N)C1=N[C@H](C(=O)N[C@@H](CC(C)C)C(=O)N[C@H](CCC(=O)O)C(=O)N[C@H](C(=O)N[C@H]2CCCCNC(=O)[C@H](CC(N)=O)NC(=O)[C@@H](CC(=O)O)NC(=O)[C@H](Cc3cnc[nH]3)NC(=O)[C@@H](Cc3ccccc3)NC(=O)[C@H]([C@@H](C)CC)NC(=O)[C@@H](CCCN)NC2=O)[C@@H](C)CC)CS1 [Bacitracin] ({Ileψ(thiazoline)Cys}-L[dE]IK[dOrn]I[dF]H[dD]N; lactam 4-C) | 62.0 | 1.08 PFU per cell | 515.0 | 0.13 PFU per cell | 4786.0 | 0.014 PFU per cell | 8375.0 | 0.008 PFU per cell | inactive | – | – | – | – |
| Nc1nc2c(ncn2COCCO)c(=O)[nH]1 [Acyclovir, 9-((2-hydroxyethoxy)methyl)guanine] | – | – | – | – | – | – | – | – | – | 3.96 | 16.9 PFU per cell | 13.67 | 4.9 PFU per cell |
